Tests used:
Test in all cases: Transient transfection (transactivation) assay in CV-1 cells, GAL4-PPAR chimera, luciferase reporter
Format in all cases: cell-based
PPAR alpha = molecular target: T1, PPAR alpha (Homo sapiens, UniProt Q07869)
T1 construct: expressed in transfected cells; host or cells: CV-1 cells
T1 sequence (Q07869 239-466 limits assumed): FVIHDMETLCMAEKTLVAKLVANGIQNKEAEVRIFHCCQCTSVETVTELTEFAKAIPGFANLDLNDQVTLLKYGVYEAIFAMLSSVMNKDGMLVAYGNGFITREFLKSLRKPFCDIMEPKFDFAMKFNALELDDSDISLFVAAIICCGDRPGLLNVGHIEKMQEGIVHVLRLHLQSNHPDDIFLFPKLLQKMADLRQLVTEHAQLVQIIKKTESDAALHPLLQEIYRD
Outline: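 EC50 and efficacy come from a luciferase read-out after 20-24 hours of compound exposure (vehicle 1% DMSO) in transiently transfected CV-1 cells. These cells express a GAL4-PPAR ligand-binding-domain chimera plus a reporter with four or five GAL4 binding sites, and are kept in phenol-red free DME with 5% delipidated calf serum.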

PPAR delta = molecular target: T2, PPAR delta (Homo sapiens, UniProt Q03181)
T2 construct: expressed in transfected cells; host or cells: CV-1 cells
T2 sequence (Q03181 211-439 limits assumed): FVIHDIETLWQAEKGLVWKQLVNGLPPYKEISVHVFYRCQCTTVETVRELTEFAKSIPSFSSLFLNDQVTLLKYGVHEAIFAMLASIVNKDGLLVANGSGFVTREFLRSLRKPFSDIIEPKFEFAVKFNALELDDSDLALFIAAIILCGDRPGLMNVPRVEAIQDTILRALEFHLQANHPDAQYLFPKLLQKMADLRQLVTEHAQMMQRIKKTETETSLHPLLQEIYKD

PPAR gamma = molecular target: T3, PPAR gamma (Homo sapiens, UniProt P37231)
T3 construct: expressed in transfected cells; host or cells: CV-1 cells
T3 sequence (P37231 238-503 limits assumed): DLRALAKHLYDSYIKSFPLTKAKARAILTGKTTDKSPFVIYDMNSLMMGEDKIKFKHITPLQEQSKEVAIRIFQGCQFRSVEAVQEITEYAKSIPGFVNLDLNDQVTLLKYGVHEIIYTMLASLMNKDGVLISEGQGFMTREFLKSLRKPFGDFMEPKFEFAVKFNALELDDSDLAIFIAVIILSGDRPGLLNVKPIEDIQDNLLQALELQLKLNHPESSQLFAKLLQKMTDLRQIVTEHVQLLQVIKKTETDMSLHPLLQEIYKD

Row | Structure (SMILES) | EC50 (PPAR alpha) [µM] | EC50 (PPAR delta) [µM] | EC50 (PPAR gamma) [µM]
1 | COc1ccc(N2CCN(S(=O)(=O)c3ccc(C)c(CC(=O)O)c3)CC2)cc1OC [Example 179, {5-[4-(3,4-Dimethoxy-phenyl)-piperazine-1-sulfonyl]-2-methyl-phenyl}-acetic acid] | > 100 | > 100 | > 100
2 | Cc1ccc(S(=O)(=O)N2CCN(c3ccc(F)cc3F)CC2)cc1CC(=O)O [Example 180, {5-[4-(2,4-Difluoro-phenyl)-piperazine-1-sulfonyl]-2-methyl-phenyl}-acetic acid] | > 100 | 5 to 100 | 5 to 100
3 | Cc1ccc(S(=O)(=O)N2CCN(c3ccccc3)CC2)cc1CC(=O)O [Example 181, [2-Methyl-5-(4-phenyl-piperazine-1-sulfonyl)-phenyl]-acetic acid] | > 100 | 5 to 100 | 5 to 100
4 | O=C(O)Cc1cccc(S(=O)(=O)N2CCC(c3ccc(Cl)cc3)CC2)c1 [Example 184, {3-[4-(4-Chloro-phenyl)-piperidine-1-sulfonyl]-phenyl}-acetic acid] | > 100 | 5 to 100 | > 100
5 | Cc1cc(CC(=O)O)cc(S(=O)(=O)N2CCC(c3ccc(Cl)cc3)CC2)c1 [Example 185, {3-[4-(4-Chloro-phenyl)-piperidine-1-sulfonyl]-5-methyl-phenyl}-acetic acid] | > 100 | 5 to 100 | 5 to 100
6 | O=C(O)CCc1cccc(S(=O)(=O)N2CCN(c3ccc(Cl)c(Cl)c3)CC2)c1 [Example 186, 3-{3-[4-(3,4-Dichloro-phenyl)-piperazine-1-sulfonyl]-phenyl}-propionic acid] | > 100 | < 5 | 5 to 100
7 | O=C(O)CCc1cccc(S(=O)(=O)N2CCN(c3ccc(Cl)cc3)CC2)c1 [Example 187, 3-{3-[4-(4-Chloro-phenyl)-piperazine-1-sulfonyl]-phenyl}-propionic acid] | > 100 | < 5 | 5 to 100
8 | O=C(O)COc1cccc(S(=O)(=O)N2CCN(c3ccc(Cl)c(Cl)c3)CC2)c1 [Example 188] | > 100 | 5 to 100 | > 100
9 | CC(C)(Oc1cccc(S(=O)(=O)N2CCN(c3ccc(Cl)c(Cl)c3)CC2)c1)C(=O)O [Example 189, 2-{3-[4-(3,4-Dichloro-phenyl)-piperazine-1-sulfonyl]-phenoxy}-2-methyl-propionic acid] | > 100 | > 100 | 5 to 100
10 | O=C(O)Cc1cc(Br)cc(S(=O)(=O)N2CCN(c3ccc(OC(F)(F)F)cc3)CC2)c1 [Example 201, {3-Bromo-5-[4-(4-trifluoromethoxy-phenyl)-piperazine-1-sulfonyl]-phenyl}-acetic acid] | 5 to 100 | < 5 | 5 to 100

Now from value to compound:

Row | EC50 (PPAR alpha) [µM] | EC50 (PPAR delta) [µM] | EC50 (PPAR gamma) [µM] | Structure (SMILES)
11 | 5 to 100 | < 5 | < 5 | Cc1ccc(S(=O)(=O)N2CCN(c3ccc(C(F)(F)F)cn3)CC2)cc1CC(=O)O [Example 182, {2-Methyl-S-[4-(5-trifluoromethyl-pyridin-2-yl)-piperazine-1-sulfonyl]-phenyl}-acetic acid]
12 | 5 to 100 | < 5 | 5 to 100 | Cc1ccc(S(=O)(=O)N2CCN(c3ccc(C(F)(F)F)cc3)CC2)cc1CC(=O)O [Example 183, {2-Methyl-5-[4-(4-trifluoromethyl-phenyl)-piperazine-1-sulfonyl]-phenyl}-acetic acid]
13 | > 100 | 5 to 100 | > 100 | O=C(O)COc1cccc(S(=O)(=O)N2CCN(c3ccc(C(F)(F)F)cc3)CC2)c1 [Example 190, {3-[4-(4-Trifluoromethyl-phenyl)-piperazine-1-sulfonyl]-phenoxy}-acetic acid]
14 | 5 to 100 | 5 to 100 | 5 to 100 | CC(C)(Oc1cccc(S(=O)(=O)N2CCN(c3ccc(C(F)(F)F)cc3)CC2)c1)C(=O)O [Example 191, 2-Methyl-2-{3-[4-(4-trifluoromethyl-phenyl)-piperazine-1-sulfonyl]-phenoxy}-propionic acid]
15 | > 100 | 5 to 100 | > 100 | C[C@@H]1CN(c2ccc(OC(F)(F)F)cc2)C[C@H](C)N1S(=O)(=O)c1ccc(O)c(CCC(=O)O)c1 [Example 192, 3-{5-[2,6-Dimethyl-4-(4-trifluoromethoxy-phenyl)-piperazine-1-sulfonyl]-2-hydroxy-phenyl}-propionic acid]
16 | > 100 | 5 to 100 | > 100 | C[C@@H]1CN(c2ccc(C(F)(F)F)cn2)C[C@H](C)N1S(=O)(=O)c1ccc(O)c(CCC(=O)O)c1 [Example 193, 3-{5-[2,6-Dimethyl-4-(5-trifluoromethyl-pyridin-2-yl)-piperazine-1-sulfonyl]-2-hydroxy-phenyl}-propionic acid]
17 | > 100 | < 5 | > 100 | COc1ccc(S(=O)(=O)N2[C@H](C)CN(c3ccc(C(F)(F)F)cn3)C[C@@H]2C)cc1CCC(=O)O [Example 194, 3-{5-[2,6-Dimethyl-4-(5-trifluoromethyl-pyridin-2-yl)-piperazine-1-sulfonyl]-2-methoxy-phenyl}-propionic acid]
18 | 5 to 100 | < 5 | 5 to 100 | Cc1cc(CC(=O)O)cc(S(=O)(=O)N2[C@@H](C)CN(c3ccc(C(F)(F)F)cn3)C[C@@H]2C)c1 [Example 195, {3-[2,6(S,S)-Dimethyl-4-(5-trifluoromethyl-pyridin-2-yl)-piperazine-1-sulfonyl]-5-methyl-phenyl}-acetic acid]
19 | 5 to 100 | < 5 | < 5 | Cc1cc(S(=O)(=O)N2CCN(c3ccc(C(F)(F)F)cn3)CC2)cc(CC(=O)O)c1Br [Example 196, {2-Bromo-3-methyl-5-[4-(5-trifluoromethyl-pyridin-2-yl)-piperazine-1-sulfonyl]-phenyl}-acetic acid]
20 | > 100 | < 5 | 5 to 100 | Cc1cc(S(=O)(=O)N2[C@H](C)CN(c3ccc(C(F)(F)F)cn3)C[C@@H]2C)cc(CC(=O)O)c1Br [Example 197, {2-Bromo-5-[2,6-dimethyl-4-(5-trifluoromethyl-pyridin-2-yl)-piperazine-1-sulfonyl]-3-methyl-phenyl}-acetic acid]
21 | 5 to 100 | < 5 | 5 to 100 | Cc1cc(S(=O)(=O)N2[C@H](C)CN(c3ccc(OC(F)(F)F)cc3)C[C@@H]2C)cc(CC(=O)O)c1Br [Example 198, {2-Bromo-5-[2,6-dimethyl-4-(4-trifluoromethoxy-phenyl)-piperazine-1-sulfonyl]-3-methyl-phenyl}-acetic acid]
22 | 5 to 100 | < 5 | 5 to 100 | O=C(O)Cc1cc(Br)cc(S(=O)(=O)N2CCN(c3ccc(C(F)(F)F)cn3)CC2)c1 [Example 199, {3-Bromo-5-[4-(5-trifluoromethyl-pyridin-2-yl)-piperazine-1-sulfonyl]-phenyl}acetic acid]
23 | 5 to 100 | < 5 | 5 to 100 | C[C@@H]1CN(c2ccc(OC(F)(F)F)cc2)C[C@H](C)N1S(=O)(=O)c1cc(Br)cc(CC(=O)O)c1 [Example 200, {3-Bromo-5-[2,6-dimethyl-4-(4-trifluoromethoxy-phenyl)-piperazine-1-sulfonyl]-phenyl}-acetic acid]
